Counter-ions that a name gives are not always drawn. Like-named read-outs stand apart in the source and are kept apart here.
Key:
Assay type in all cases: biochemical
[1] = biological target: T1, human JAK1 (a.a. 837-1142) (Homo sapiens, UniProt P23458); test: In vitro JAK kinase assay (HTRF, phosphorylation of a biotinylated peptide), JAK1; details: read-out: JAK1 IC50
T1 construct: human JAK1 (a.a. 837-1142); His tag (N); made in house; host or cells: insect cells (baculovirus)
Procedure, shortened: (§1)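 Phosphorylation of a biotinylated peptide by the JAK kinase domain, detected by HTRF with Eu-Py20 and SA-APC. ATP was 90 μM for JAK1, 30 μM for JAK2 and 3 μM for JAK3. Reactions ran 1 h at room temperature and were stopped with EDTA, followed by 40 min antibody binding.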

[2] = biological target: T2, human JAK2 (a.a. 828-1132) (Homo sapiens, UniProt O60674); test: In vitro JAK kinase assay (HTRF, phosphorylation of a biotinylated peptide), JAK2
T2 construct: JAK2 (a.a. 828-1132); His tag (N); made in house; host or cells: insect cells (baculovirus)
T2 sequence (O60674 828-1132): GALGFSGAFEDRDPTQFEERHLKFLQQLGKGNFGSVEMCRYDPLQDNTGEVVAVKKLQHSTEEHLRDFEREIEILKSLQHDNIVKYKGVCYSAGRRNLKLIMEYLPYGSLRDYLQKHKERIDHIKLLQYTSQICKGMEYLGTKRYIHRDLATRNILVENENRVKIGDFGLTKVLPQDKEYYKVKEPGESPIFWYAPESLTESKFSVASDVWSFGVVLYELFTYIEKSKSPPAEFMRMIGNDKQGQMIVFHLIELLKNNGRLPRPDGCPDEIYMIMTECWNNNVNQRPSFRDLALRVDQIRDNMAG
Procedure, shortened: as §1

TYK2 = TYK2 (Homo sapiens, UniProt P29597); test: TYK2 kinase inhibition (Table A1)
Chain of TYK2 (P29597 whole entry): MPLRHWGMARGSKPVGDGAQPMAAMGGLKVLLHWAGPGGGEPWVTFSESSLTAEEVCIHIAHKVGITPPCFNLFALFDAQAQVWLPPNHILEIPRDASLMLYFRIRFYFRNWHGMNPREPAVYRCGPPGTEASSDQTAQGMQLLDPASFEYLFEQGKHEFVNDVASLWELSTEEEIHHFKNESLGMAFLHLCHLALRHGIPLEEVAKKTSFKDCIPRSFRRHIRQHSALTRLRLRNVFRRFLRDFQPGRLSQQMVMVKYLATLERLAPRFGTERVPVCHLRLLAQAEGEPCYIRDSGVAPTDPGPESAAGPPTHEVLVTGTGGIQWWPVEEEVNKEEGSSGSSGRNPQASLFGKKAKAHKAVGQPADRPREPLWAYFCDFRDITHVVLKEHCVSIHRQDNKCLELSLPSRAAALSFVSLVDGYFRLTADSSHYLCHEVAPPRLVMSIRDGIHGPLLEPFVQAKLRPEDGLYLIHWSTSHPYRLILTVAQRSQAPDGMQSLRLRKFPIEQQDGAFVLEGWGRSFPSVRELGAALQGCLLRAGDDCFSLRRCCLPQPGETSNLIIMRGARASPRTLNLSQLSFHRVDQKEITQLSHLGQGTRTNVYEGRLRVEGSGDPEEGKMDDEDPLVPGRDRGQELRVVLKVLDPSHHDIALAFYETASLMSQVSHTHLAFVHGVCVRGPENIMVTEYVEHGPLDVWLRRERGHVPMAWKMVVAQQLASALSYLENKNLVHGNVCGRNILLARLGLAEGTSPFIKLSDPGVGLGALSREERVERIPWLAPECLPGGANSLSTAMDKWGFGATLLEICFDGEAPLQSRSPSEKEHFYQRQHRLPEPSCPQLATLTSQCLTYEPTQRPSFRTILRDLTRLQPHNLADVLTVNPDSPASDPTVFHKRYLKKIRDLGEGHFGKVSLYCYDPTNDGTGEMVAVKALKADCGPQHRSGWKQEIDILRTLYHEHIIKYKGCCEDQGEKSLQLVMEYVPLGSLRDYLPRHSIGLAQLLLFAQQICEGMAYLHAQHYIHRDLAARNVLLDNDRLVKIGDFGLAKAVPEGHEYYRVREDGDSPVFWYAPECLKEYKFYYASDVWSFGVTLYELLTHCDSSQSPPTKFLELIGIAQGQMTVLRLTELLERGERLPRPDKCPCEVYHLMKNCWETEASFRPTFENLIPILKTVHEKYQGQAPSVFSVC

[3] = biological target: T3, human JAK3 (a.a. 781-1124) (Homo sapiens, UniProt P52333); test: In vitro JAK kinase assay (HTRF, phosphorylation of a biotinylated peptide), JAK3
T3 construct: JAK3 (a.a. 781-1124); His tag (N); made in house; host or cells: insect cells (baculovirus)
T3 sequence (P52333 781-1124): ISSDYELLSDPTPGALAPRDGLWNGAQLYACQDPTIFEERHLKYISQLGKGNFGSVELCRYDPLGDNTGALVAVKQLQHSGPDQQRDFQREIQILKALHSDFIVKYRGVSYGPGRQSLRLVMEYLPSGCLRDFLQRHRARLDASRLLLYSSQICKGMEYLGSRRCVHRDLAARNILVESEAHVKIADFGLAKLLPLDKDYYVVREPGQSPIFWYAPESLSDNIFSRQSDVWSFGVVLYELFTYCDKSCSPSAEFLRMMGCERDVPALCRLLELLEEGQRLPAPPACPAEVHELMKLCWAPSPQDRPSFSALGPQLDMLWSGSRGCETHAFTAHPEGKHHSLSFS
Procedure, shortened: as §1

[4] = biological target: T4, Recombinant Human Anaplastic Lymphoma Kinase (Homo sapiens, UniProt Q9UM73); test: ALK HTRF kinase assay
T4 construct: purchased Invitrogen, Carlsbad, Calif
T4 sequence (Q9UM73 19-1620): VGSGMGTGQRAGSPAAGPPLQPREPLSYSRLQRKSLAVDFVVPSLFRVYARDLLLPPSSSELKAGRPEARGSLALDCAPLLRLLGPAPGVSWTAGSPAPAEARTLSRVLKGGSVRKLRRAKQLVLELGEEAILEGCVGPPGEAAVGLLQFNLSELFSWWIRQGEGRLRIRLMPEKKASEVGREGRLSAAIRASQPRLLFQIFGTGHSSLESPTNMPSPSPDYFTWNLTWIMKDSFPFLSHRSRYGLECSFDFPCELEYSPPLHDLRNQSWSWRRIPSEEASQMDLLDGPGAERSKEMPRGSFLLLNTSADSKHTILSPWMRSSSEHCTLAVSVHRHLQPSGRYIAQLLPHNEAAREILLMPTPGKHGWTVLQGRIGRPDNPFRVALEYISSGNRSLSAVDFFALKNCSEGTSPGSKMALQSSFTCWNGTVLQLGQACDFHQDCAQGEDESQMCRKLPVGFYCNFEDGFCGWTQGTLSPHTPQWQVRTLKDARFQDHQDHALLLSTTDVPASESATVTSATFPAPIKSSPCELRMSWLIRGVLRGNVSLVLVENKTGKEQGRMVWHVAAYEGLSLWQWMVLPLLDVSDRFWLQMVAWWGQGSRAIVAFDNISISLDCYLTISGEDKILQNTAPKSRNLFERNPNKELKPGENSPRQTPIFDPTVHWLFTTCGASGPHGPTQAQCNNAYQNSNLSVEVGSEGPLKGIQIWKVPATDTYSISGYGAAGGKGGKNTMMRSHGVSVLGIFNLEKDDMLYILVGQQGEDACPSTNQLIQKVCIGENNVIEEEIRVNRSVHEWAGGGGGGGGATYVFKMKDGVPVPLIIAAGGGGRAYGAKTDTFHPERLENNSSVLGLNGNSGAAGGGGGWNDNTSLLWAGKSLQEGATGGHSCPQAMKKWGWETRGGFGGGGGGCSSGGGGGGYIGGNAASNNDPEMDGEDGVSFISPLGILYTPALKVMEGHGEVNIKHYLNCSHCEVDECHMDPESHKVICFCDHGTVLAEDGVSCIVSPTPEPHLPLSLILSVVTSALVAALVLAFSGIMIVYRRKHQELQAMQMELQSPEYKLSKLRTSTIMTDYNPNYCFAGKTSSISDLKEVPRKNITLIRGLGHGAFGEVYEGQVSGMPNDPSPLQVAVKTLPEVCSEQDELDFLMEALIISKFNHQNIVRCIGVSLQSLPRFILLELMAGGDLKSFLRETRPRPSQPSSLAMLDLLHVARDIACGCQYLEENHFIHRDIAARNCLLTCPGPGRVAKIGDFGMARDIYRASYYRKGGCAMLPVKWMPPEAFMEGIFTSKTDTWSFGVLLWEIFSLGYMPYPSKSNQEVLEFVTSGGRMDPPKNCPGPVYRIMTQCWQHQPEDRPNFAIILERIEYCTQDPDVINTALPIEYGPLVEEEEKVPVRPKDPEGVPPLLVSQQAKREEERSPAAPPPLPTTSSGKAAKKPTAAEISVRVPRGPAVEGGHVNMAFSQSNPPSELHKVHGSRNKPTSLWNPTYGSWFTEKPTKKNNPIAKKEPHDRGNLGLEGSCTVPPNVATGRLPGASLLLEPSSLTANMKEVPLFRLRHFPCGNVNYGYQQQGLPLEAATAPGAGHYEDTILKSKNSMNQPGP
Procedure, shortened: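 Compounds were incubated with recombinant human ALK and a biotin-tagged peptide substrate. Product was captured with streptavidin-APC and probed with a europium anti-phosphotyrosine antibody, and plates were read for time-resolved fluorescence. Dose-response data were fitted to derive IC50.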

[5] = Table B1, cells without percent sign
[6] = method AA1 (90 μM ATP) or AA2 (1000 μM ATP), not stated per value
[7] = method AA1 (30 μM ATP) or AA2 (1000 μM ATP), not stated per value
[8] = method AA1 (3 μM ATP) or AA2 (1000 μM ATP), not stated per value
[9] = compound at 500 nM or 1 mM, 90 μM ATP
[10] = compound at a concentration of 500 nM or 1 mM (not specified), cells shown as percentage

T1 sequence (P23458 849-1154): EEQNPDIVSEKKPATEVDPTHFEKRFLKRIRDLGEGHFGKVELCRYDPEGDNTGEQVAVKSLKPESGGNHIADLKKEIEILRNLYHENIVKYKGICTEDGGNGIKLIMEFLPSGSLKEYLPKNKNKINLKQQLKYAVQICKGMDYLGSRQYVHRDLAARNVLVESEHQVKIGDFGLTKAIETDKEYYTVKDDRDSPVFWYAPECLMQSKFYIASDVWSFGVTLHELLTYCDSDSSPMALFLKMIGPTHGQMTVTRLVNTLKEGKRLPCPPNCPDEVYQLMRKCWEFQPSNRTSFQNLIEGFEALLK

Compound: O=C(Nc1ccc2cc1CCc1cncc(c1)Nc1ncc(Cl)c(n1)N2)N1CCC(c2ccccc2)C1 (stereo not shown) [Example B312, N-[6-Chloro-2,4,8,18,22-pentaazatetracyclo[14.3.1.1(3,7).1(9,13)]docosa-1(20),3(22),4,6,9(21),10,12,16,18-nonaen-12-yl]-3-phenylpyrrolidine-1-carboxamide bis(trifluoroacetate)]
- IC50 ([1]; Table B1): 5 nM
- IC50 ([2]; Table B1): 70 nM
- IC50 (TYK2; Table B1): 42 nM
- IC50 ([3]; Table B1): > 400 nM
- ALK % of inhibition at a concentration of 500 nM or 1 mM ([4]; percentage inhibition of the example compound at a concentration of 500 nM or 1 mM (not specified which)): 40%

Compound: CC(C)S(=O)(=O)Nc1ccc2cc1CCc1cccc(c1)Nc1ncc(Cl)c(n1)N2 [Example B143, N-[6-Chloro-2,4,8,22-tetraazatetracyclo[14.3.1.1(3,7).1(9,13)]docosa-1(20), 3(22),4,6,9(21),10,12,16,18-nonaen-12-yl]propane-2-sulfonamide trifluoroacetate]
- IC50 ([1]; Table B1): 11 nM
- IC50 ([2]; Table B1): 2.8 nM
- IC50 (TYK2; Table B1): 13 nM
- IC50 ([3]; Table B1): 104 nM
- IC50 [4, 5]: > 1000 nM

Compound: CC(C)(C)C(=O)N1CCC(CC(=O)Nc2ccc3cc2CCc2cncc(c2)Nc2ncc(Cl)c(n2)N3)CC1 [Example A112, N-[6-Chloro-2,4,8,18,22-pentaazatetracyclo[14.3.1.1(3,7).1(9,13)]docosa-1(20),3(22),4,6,9(21),10,12,16,18-nonaen-12-yl]-2-[1-(2,2-dimethylpropanoyl)piperidin-4-yl]acetamide bis(trifluoroacetate)]
- IC50 [1, 6]: 8 nM
- IC50 [2, 7]: 38 nM
- IC50 (TYK2): 61 nM
- IC50 [3, 8]: 239 nM
- ALK % of inhibition at a concentration of 500 nM or 1 mM [4, 9]: 20%

Compound: CC(=O)N1CC[C@H](NC(=O)Nc2ccc3cc2CCc2cccc(c2)Nc2ncc(Cl)c(n2)N3)C1 [Example B168, N-[(3S)-1-Acetylpyrrolidin-3-yl]-N′-[6-chloro-2,4,8,22-tetraazatetracyclo[14.3.1.1(3,7).1(9,13)]docosa-1(20),3(22),4,6,9(21),10,12,16,18-nonaen-12-yl]urea trifluoroacetate]
- IC50 ([1]; Table B1): 2.8 nM
- IC50 ([2]; Table B1): 12 nM
- IC50 (TYK2; Table B1): 17 nM
- IC50 ([3]; Table B1): 67 nM
- ALK % of inhibition at a concentration of 500 nM or 1 mM [4, 10]: 21%

Compound: Cc1ccc(NC(=O)N2CCC(CC(=O)Nc3ccc4cc3CCc3cncc(c3)Nc3ncc(Cl)c(n3)N4)CC2)cc1 [Example A151, 4-(2-{[6-Chloro-2,4,8,18,22-pentaazatetracyclo[14.3.1.1(3,7).1(9,13)]docosa-1(20),3(22),4,6,9(21),10,12,16,18-nonaen-12-yl]amino}-2-oxoethyl)-N-(4-methylphenyl)piperidine-1-carboxamide bis(trifluoroacetate)]
- IC50 [1, 6]: 0.3 nM
- IC50 [2, 7]: 1.4 nM
- IC50 (TYK2): 3.8 nM
- IC50 [3, 8]: > 100 nM
- ALK % of inhibition at a concentration of 500 nM or 1 mM [4, 9]: 45%

Compound: O=C(CCNC(=O)Nc1ccccc1)Nc1ccc2cc1CCc1cccc(c1)Nc1ncc(Cl)c(n1)N2 [Example A67, 3-[(Anilinocarbonyl)amino]-N-[6-chloro-2,4,8,22-tetraazatetracyclo[14.3.1.1(3,7).1(9,13)]docosa-1(20),3(22),4,6,9(21),10,12,16,18-nonaen-12-yl]propanamide trifluoroacetate]
- IC50 [1, 6]: 8 nM
- IC50 [2, 7]: 2.8 nM
- IC50 (TYK2): 10 nM
- IC50 [3, 8]: 7.7 nM
- ALK % of inhibition at a concentration of 500 nM or 1 mM [4, 9]: 40%

Compound: Clc1cnc2nc1Nc1cccc(c1)COc1cccc(c1)N2 [Example D6, 6-Chloro-15-oxa-2,4,8,22-tetraazatetracyclo[14.3.1.1(3,7).1(9,13)]docosa-1(20),3(22),4,6,9(21),10,12,16,18-nonaene trifluoroacetate]
- IC50 ([1]; Table D1): 36 nM
- IC50 ([2]; Table D1): 37 nM
- IC50 (TYK2; Table D1): 16 nM
- IC50 ([3]; Table D1): > 100 nM
- IC50 ([4]; Table D1, 90 μM ATP): 4190 nM

Compound: COC(=O)c1ccc2cc1CCc1cccc(c1)Nc1ncc(Cl)c(n1)N2 [Example B22, Methyl 6-chloro-2,4,8,22-tetraazatetracyclo[14.3.1.1(3,7).1(9,13)]docosa-1(20),3(22),4,6,9(21),10,12,16,18-nonaene-12-carboxylate trifluoroacetate]
- IC50 ([1]; Table B1): 144 nM
- IC50 ([2]; Table B1): 11 nM
- IC50 (TYK2; Table B1): 41 nM
- IC50 ([3]; Table B1): 104 nM
- IC50 [4, 5]: 1440 nM

Compound: O=C(Nc1ccc2cc1CCc1cncc(c1)Nc1ncc(Cl)c(n1)N2)N[C@H]1CCNC1 [Example B25, N-[6-Chloro-2,4,8,18,22-pentaazatetracyclo[14.3.1.1(3,7).1(9,13)]docosa-1(20),3(22),4,6,9(21),10,12,16,18-nonaen-12-yl]-N′-[(3S)-pyrrolidin-3-yl]urea trihydrochloride]
- IC50 ([1]; Table B1): 12 nM
- IC50 ([2]; Table B1): 36 nM
- IC50 (TYK2; Table B1): 50 nM
- IC50 ([3]; Table B1): 153 nM
- ALK % of inhibition at a concentration of 500 nM or 1 mM [4, 10]: 14%

Compound: O=C(CC1CCN(c2ncc(F)cn2)CC1)Nc1ccc2cc1CCc1cncc(c1)Nc1ncc(Cl)c(n1)N2 [Example A169, N-[6-Chloro-2,4,8,18,22-pentaazatetracyclo[14.3.1.1(3,7).1(9,13)]docosa-1(20),3(22),4,6,9(21),10,12,16,18-nonaen-12-yl]-2-[1-(5-fluoropyrimidin-2-yl)piperidin-4-yl]acetamide tris(trifluoroacetate)]
- IC50 [1, 6]: 26 nM
- IC50 [2, 7]: 131 nM
- IC50 (TYK2): 319 nM
- IC50 [3, 8]: > 1000 nM
- ALK % of inhibition at a concentration of 500 nM or 1 mM [4, 9]: 23%

Compound: O=C(Nc1ccccc1CCl)Nc1ccc2cc1CCc1cccc(c1)Nc1ncc(Cl)c(n1)N2 [Example B108, N-[2-(Chloromethyl)phenyl]-N′-[6-chloro-2,4,8,22-tetraazatetracyclo[14.3.1.1(3,7).1(9,13)]docosa-1(20),3(22),4,6,9(21),10,12,16,18-nonaen-12-yl]urea trifluoroacetate]
- IC50 ([1]; Table B1): 1.6 nM
- IC50 ([2]; Table B1): 4.6 nM
- IC50 (TYK2; Table B1): 2.1 nM
- IC50 ([3]; Table B1): 23 nM
- ALK % of inhibition at a concentration of 500 nM or 1 mM [4, 10]: 21%

Compound: O=C(Nc1ccc2cc1CCc1cccc(c1)Nc1ncc(Cl)c(n1)N2)c1ccncc1 [Example B39, N-[6-Chloro-2,4,8,22-tetraazatetracyclo[14.3.1.1(3,7).1(9,13)]docosa-1(20), 3(22),4,6,9(21),10,12,16,18-nonaen-12-yl]isonicotinamide bis(trifluoroacetate)]
- IC50 ([1]; Table B1): 0.2 nM
- IC50 ([2]; Table B1): 0.12 nM
- IC50 (TYK2; Table B1): 0.66 nM
- IC50 ([3]; Table B1): 2.7 nM
- IC50 [4, 5]: 86 nM

Compound: Clc1cnc2nc1Nc1cccc(c1)CCCNc1cccc(c1)N2 [Example D77, 6-Chloro-2,4,8,17,24-pentaazatetracyclo[16.3.1.1(3,7).1(9,13)]tetracosa-1(22),3(24),4,6,9(23),10,12,18,20-nonaene bis(trifluoroacetate)]
- IC50 ([1]; Table D1): 8.9 nM
- IC50 ([2]; Table D1): 3.1 nM
- IC50 (TYK2; Table D1): 5.6 nM
- IC50 ([3]; Table D1): 11 nM
- IC50 ([4]; Table D1, 90 μM ATP): 400 nM

Compound: N#Cc1ccc(S(=O)(=O)N2CCC(CC(=O)Nc3ccc4cc3CCc3cncc(c3)Nc3ncc(Cl)c(n3)N4)CC2)cc1 [Example A199, N-[6-Chloro-2,4,8,18,22-pentaazatetracyclo[14.3.1.1(3,7).1(9,13)]docosa-1(20),3(22),4,6,9(21),10,12,16,18-nonaen-12-yl]-2-{1-[(4-cyanophenyl)sulfonyl]piperidin-4-yl}acetamide bis(trifluoroacetate)]
- IC50 [1, 6]: 32 nM
- IC50 [2, 7]: 199 nM
- IC50 (TYK2): > 200 nM
- IC50 [3, 8]: > 200 nM
- ALK % of inhibition at a concentration of 500 nM or 1 mM [4, 9]: 41%

Compound: O=C(Nc1nccs1)c1cc2cc(c1)OCCSc1cccc(c1)Nc1nc(ncc1Cl)N2 [Example D54, 6-Chloro-N-1,3-thiazol-2-yl-17-oxa-14-thia-2,4,8,24-tetraazatetracyclo[16.3.1.1(3,7).1(9,13)]tetracosa-1(22),3(24),4,6,9(23),10,12,18,20-nonaene-20-carboxamide trifluoroacetate]
- IC50 ([1]; Table D1): 18 nM
- IC50 ([2]; Table D1): 15 nM
- IC50 (TYK2; Table D1): 27 nM
- IC50 ([3]; Table D1): 132 nM
- IC50 ([4]; Table D1, 90 μM ATP): 1220 nM

Compound: NS(=O)(=O)c1cc2cc(c1)Nc1nc(ncc1Br)Nc1cccc(c1)CC2 [Example B18, 6-Bromo-2,4,8,22-tetraazatetracyclo[14.3.1.1(3,7).1(9,13)]docosa-1(20),3(22),4,6,9(21),10,12,16,18-nonaene-11-sulfonamide trifluoroacetate]
- IC50 ([1]; Table B1): 107 nM
- IC50 ([2]; Table B1): 23 nM
- IC50 (TYK2; Table B1): 178 nM
- IC50 ([3]; Table B1): 64 nM
- IC50 [4, 5]: > 1000 nM

Compound: O=C(Nc1ccc2cc1CCc1cccc(c1)Nc1ncc(Cl)c(n1)N2)Nc1cccc2c1CCCC2 [Example B109, N-[6-Chloro-2,4,8,22-tetraazatetracyclo[14.3.1.1(3,7).1(9,13)]docosa-1(20),3(22),4,6,9(21),10,12,16,18-nonaen-12-yl]-N′-(5,6,7,8-tetrahydronaphthalen-1-yl)urea trifluoroacetate]
- IC50 ([1]; Table B1): 9.6 nM
- IC50 ([2]; Table B1): 56 nM
- IC50 (TYK2; Table B1): 72 nM
- IC50 ([3]; Table B1): 261 nM
- ALK % of inhibition at a concentration of 500 nM or 1 mM [4, 10]: 0%

From US8871753B2, “Macrocyclic compounds and their use as kinase inhibitors” (Incyte Corporation, priority 2008, dated 2014)
